Reference: patent publication US12091426B2, “Bifunctional degraders of hematopoietic progenitor kinase and therapeutic uses thereof” (Nurix Therapeutics, Inc., priority 2021, dated 2024)

Biological target: T1, HPK1 (Homo sapiens, UniProt Q92918)
T1 construct: A HiBiT tag was introduced by CRISPR on the N terminus of HPK1 in Jurkat cells; host or cells: Jurkat cells (ATCC TIB-152), monoclonal line with CRISPR knock-in of HiBiT at the endogenous HPK1 locus
Test: HPK1 Cellular HiBit Degradation Assay
Format: cell-based
Settings: HiBiT HPK1 Jurkat cells, 24 hrs; for DC50: concentration at which 50% of HPK1 was remaining, read-out: DC50 Category; for Dmax: Jurkat, maximum degradation vs DMSO vehicle control, read-out: Dmax Category
Summary of the method: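 Jurkat cells with CRISPR knock-in N-terminal HiBiT-HPK1 were treated with CTMs (11-point, 3.16-fold, 10 uM to 0.1 nM final) for 24 hrs at 37° C. HiBiT lytic luminescence, with parental Jurkat as background and DMSO as 100%, gave % HPK1 remaining; four-parameter fit yielded DC50 and Dmax (100 minus lowest % remaining).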

T1 sequence (Q92918 whole entry): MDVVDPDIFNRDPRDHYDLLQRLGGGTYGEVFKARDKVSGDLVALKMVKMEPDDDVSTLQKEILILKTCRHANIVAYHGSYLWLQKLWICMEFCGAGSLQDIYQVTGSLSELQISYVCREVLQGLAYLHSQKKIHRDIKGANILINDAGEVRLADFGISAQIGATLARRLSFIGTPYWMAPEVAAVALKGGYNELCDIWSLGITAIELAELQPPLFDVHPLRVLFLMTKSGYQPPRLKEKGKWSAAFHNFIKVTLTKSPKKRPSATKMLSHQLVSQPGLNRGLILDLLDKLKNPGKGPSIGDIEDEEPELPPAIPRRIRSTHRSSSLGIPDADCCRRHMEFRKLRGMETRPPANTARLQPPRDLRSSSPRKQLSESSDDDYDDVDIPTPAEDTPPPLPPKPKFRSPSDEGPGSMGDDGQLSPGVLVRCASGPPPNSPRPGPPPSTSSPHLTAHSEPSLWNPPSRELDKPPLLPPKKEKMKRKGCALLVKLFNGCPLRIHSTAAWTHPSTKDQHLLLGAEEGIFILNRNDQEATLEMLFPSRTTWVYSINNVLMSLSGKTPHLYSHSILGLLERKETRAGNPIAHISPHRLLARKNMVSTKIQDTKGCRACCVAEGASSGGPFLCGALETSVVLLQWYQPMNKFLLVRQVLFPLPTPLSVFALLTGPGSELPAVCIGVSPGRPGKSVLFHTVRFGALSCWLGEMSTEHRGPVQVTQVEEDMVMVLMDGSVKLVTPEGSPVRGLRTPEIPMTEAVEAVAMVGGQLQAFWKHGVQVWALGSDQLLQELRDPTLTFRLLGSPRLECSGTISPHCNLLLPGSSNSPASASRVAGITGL

| DC50 | Dmax | SMILES |
| --- | --- | --- |
| 0.1 to 0.5 µM | 70 to 85% | CC(C)n1cnc2cc(-c3ccc4c(c3)N([C@H]3C[C@@H](N5CCCCC5)C3)C(=O)C43CCN(C(=O)C4CCN(C(=O)[C@H]5CC[C@H](n6cc7cc(C8CCC(=O)NC8=O)ccc7n6)CC5)CC4)CC3)nc(NC3CC3)c21 (stereo partly drawn) [Example 179, 3-{2-[(1R,4R)-4-[4-({6-[4-(cyclopropylamino)-3-(propan-2-yl)-3H-imidazo[4,5-c]pyridin-6-yl]-2-oxo-1-[(1S,3S)-3-(piperidin-1-yl)cyclobutyl]-1,2-dihydrospiro[indole-3,4′-piperidin]-1′-yl}carbonyl)piperidine-1-carbonyl]cyclohexyl]-2H-indazol-5-yl}piperidine-2,6-dione] |
| 0.5 to 1 µM | 50 to 70% | CC(C)n1cnc2cc(-c3ccc4c(c3)N([C@H]3C[C@@H](N5CCCCC5)C3)C(=O)C43CCN(C(=O)C4CCN(C(=O)[C@H]5CC[C@H](Nc6cc(C7CCC(=O)NC7=O)ccn6)CC5)CC4)CC3)nc(Nc3ccccc3F)c21 (mixture of isomers) [Example 52, (3RS)-3-(2-{[(1R,4R)-4-{4-[(6-{4-[(2-fluorophenyl)amino]-3-(propan-2-yl)-3H-imidazo[4,5-c]pyridin-6-yl}-2-oxo-1-[(1S,3S)-3-(piperidin-1-yl)cyclobutyl]-1,2-dihydrospiro[indole-3,4′-piperidin]-1′-yl)carbonyl]piperidine-1-carbonyl}cyclohexyl]amino}pyridin-4-yl)piperidine-2,6-dione] |
| 0.1 to 0.5 µM | 70 to 85% | CC(C)n1cnc2cc(-c3ccc4c(c3)N([C@H]3C[C@@H](N5CCCCC5)C3)C(=O)C43CCN(C(=O)[C@@H]4CCN(C(=O)[C@H]5CC[C@H](Nc6ccc(C7CCC(=O)NC7=O)cn6)CC5)C4)CC3)nc(NC3CC3)c21 (mixture of isomers) [Example 5, (3RS)-3-(6-{[(1R,4R)-4-[(3R)-3-({6-[4-(cyclopropylamino)-3-(propan-2-yl)-3H-imidazo[4,5-c]pyridin-6-yl]-2-oxo-1-[(1S,3S)-3-(piperidin-1-yl)cyclobutyl]-1,2-dihydrospiro[indole-3,4′-piperidin]-1′-yl}carbonyl)pyrrolidine-1-carbonyl]cyclohexyl]amino}pyridin-3-yl)piperidine-2,6-dione] |
| 0.1 to 0.5 µM | 70 to 85% | CC(C)n1cnc2cc(-c3ccc4c(c3)N([C@H]3C[C@@H](N5CC6CCC(C5)O6)C3)C(=O)C43CCN(C(=O)C4(C)CCN(C(=O)C5CCN(c6ccc(C7CCC(=O)NC7=O)cn6)CC5)CC4)CC3)nc(NC3CC3)c21 (mixture of isomers) [Example 204, (3RS)-3-(6-{4-[4-({6-[4-(cyclopropylamino)-3-(propan-2-yl)-3H-imidazo[4,5-c]pyridin-6-yl]-2-oxo-1-[(1S,3S)-3-{8-oxa-3-Azabicyclo[3.2.1]octan-3-yl}cyclobutyl]-1,2-dihydrospiro[indole-3,4′-piperidin]-1′-yl}carbonyl)-4-methylpiperidine-1-carbonyl]piperidin-1-yl}pyridin-3-yl)piperidine-2,6-dione] |
| < 0.1 µM | > 85% | CC(C)n1cnc2cc(-c3ccc4c(c3)N([C@H]3C[C@@H](N5CCCCC5)C3)C(=O)C43CCN(S(=O)(=O)C4CCN(C(=O)C5CCN(c6ccc(C7CCC(=O)NC7=O)cn6)CC5)CC4)CC3)nc(NC3CC3)c21 (mixture of isomers) [Example 159, (3RS)-3-(6-{4-[4-({6-[4-(cyclopropylamino)-3-(propan-2-yl)-3H-imidazo[4,5-c]pyridin-6-yl]-2-oxo-1-[(1S,3S)-3-(piperidin-1-yl)cyclobutyl]-1,2-dihydrospiro[indole-3,4′-piperidin]-1′-yl}sulfonyl)piperidine-1-carbonyl]piperidin-1-yl}pyridin-3-yl)piperidine-2,6-dione] |
| < 0.1 µM | > 85% | CC(C)n1cnc2cc(-c3ccc4c(c3)N([C@H]3C[C@@H](N5CCCCC5)C3)C(=O)C43CCN(C(=O)C4CC5(C4)CN(C(=O)C4CCN(c6ccc(C7CCC(=O)NC7=O)cn6)CC4)C5)CC3)nc(NC3CC3)c21 (stereo partly drawn) [Example 182, 3-(6-{4-[6-({6-[4-(cyclopropylamino)-3-(propan-2-yl)-3H-imidazo[4,5-c]pyridin-6-yl]-2-oxo-1-[(1S,3S)-3-(piperidin-1-yl)cyclobutyl]-1,2-dihydrospiro[indole-3,4′-piperidine]-1′-yl}carbonyl)-2-azaspiro[3.3]heptane-2-carbonyl]piperidin-1-yl}pyridin-3-yl)piperidine-2,6-dione] |
| < 0.1 µM | > 85% | CC(C)n1cnc2cc(-c3ccc4c(c3)N([C@H]3C[C@@H](N5CCCCC5)C3)C(=O)C43CCN(C(=O)C4CCN(S(=O)(=O)C5CCN(c6ccc(C7CCC(=O)NC7=O)cn6)CC5)CC4)CC3)nc(NC3CC3)c21 (mixture of isomers) [Example 160, (3RS)-3-[6-(4-{[4-({6-[4-(cyclopropylamino)-3-(propan-2-yl)-3H-imidazo[4,5-c]pyridin-6-yl]-2-oxo-1-[(1S,3S)-3-(piperidin-1-yl)cyclobutyl]-1,2-dihydrospiro[indole-3,4′-piperidin]-1′-yl}carbonyl)piperidin-1-yl]sulfonyl}piperidin-1-yl)pyridin-3-yl]piperidine-2,6-dione] |
| 0.1 to 0.5 µM | 50 to 70% | CC(C)n1cnc2cc(-c3ccc4c(c3)N([C@H]3C[C@@H](N5CCCCC5)C3)C(=O)C43CCN(C(=O)[C@H]4CCCN(C(=O)CC5CCN(c6ccc(C7CCC(=O)NC7=O)cn6)CC5)C4)CC3)nc(NC3CC3)c21 (mixture of isomers) [Example 231, (3RS)-3-[6-(4-{2-[(3S)-3-({6-[4-(cyclopropylamino)-3-(propan-2-yl)-3H-imidazo[4,5-c]pyridin-6-yl]-2-oxo-1-[(1S,3S)-3-(piperidin-1-yl)cyclobutyl]-1,2-dihydrospiro[indole-3,4′-piperidin]-1′-yl}carbonyl)piperidin-1-yl]-2-oxoethyl}piperidin-1-yl)pyridin-3-yl]piperidine-2,6-dione] |
| < 0.1 µM | 70 to 85% | CC(C)n1cnc2cc(-c3ccc4c(c3)N([C@H]3C[C@@H](N5CCCCC5)C3)C(=O)C43CCN(C(=O)C4CCN(C(=O)[C@H]5CC[C@H](C(=O)N6CCc7ccc(C8CCC(=O)NC8=O)cc7C6)CC5)CC4)CC3)nc(Nc3ccccc3F)c21 (mixture of isomers) [Example 50, (3RS)-3-{2-[(1R,4R)-4-{4-[(6-{4-[(2-fluorophenyl)amino]-3-(propan-2-yl)-3H-imidazo[4,5-c]pyridin-6-yl}-2-oxo-1-[(1S,3S)-3-(piperidin-1-yl)cyclobutyl]-1,2-dihydrospiro[indole-3,4′-piperidin]-1′-yl)carbonyl]piperidine-1-carbonyl}cyclohexanecarbonyl]-1,2,3,4-tetrahydroisoquinolin-7-yl}piperidine-2,6-dione] |
| 0.1 to 0.5 µM | 70 to 85% | CC(C)n1cnc2cc(-c3ccc4c(c3)N([C@H]3C[C@@H](N(C)C)C3)C(=O)C43CCN(C(=O)C4CCN(C(=O)C5CCN(c6ccc(C7CCC(=O)NC7=O)cn6)CC5)CC4)CC3)nc(Nc3ccccc3F)c21 (mixture of isomers) [Example 75, (3RS)-3-[6-(4-{4-[(6-{4-[(2-fluorophenyl)amino]-3-(propan-2-yl)-3H-imidazo[4,5-c]pyridin-6-yl}-2-oxo-1-[(1S,3S)-3-(dimethylamino)cyclobutyl]-1,2-dihydrospiro[indole-3,4′-piperidin]-1′-yl)carbonyl]piperidine-1-carbonyl}piperidin-1-yl)pyridin-3-yl]piperidine-2,6-dione] |
| < 0.1 µM | 50 to 70% | CC(C)n1cnc2cc(-c3ccc4c(c3)N([C@H]3C[C@@H](N5CCCCC5)C3)C(=O)C43CCN(C(=O)C4CCN(C(=O)C5CCN(c6ccc(N7CCC(=O)NC7=O)cn6)CC5)CC4)CC3)nc(Nc3ccncc3F)c21 [Example 81, 1-[6-(4-{4-[(6-{4-[(3-Fluoropyridin-4-yl)amino]-3-(propan-2-yl)-3H-imidazo[4,5-c]pyridin-6-yl}-2-oxo-1-[(1S,3S)-3-(piperidin-1-yl)cyclobutyl]-1,2-dihydrospiro[indole-3,4′-piperidin]-1′-yl)carbonyl]piperidine-1-carbonyl}piperidin-1-yl)pyridin-3-yl]-1,3-diazinane-2,4-dione] |
| < 0.1 µM | 70 to 85% | CC(C)n1cnc2cc(-c3ccc4c(c3)N([C@H]3C[C@@H](N5CCCCC5)C3)C(=O)C43CCN(C(=O)C4CCN(C(=O)C5CCN(c6ccc(N7CCC(=O)NC7=O)cc6)CC5)CC4)CC3)nc(Nc3ccncc3F)c21 [Example 71, 1-[4-(4-{4-[(6-{4-[(3-Fluoropyridin-4-yl)amino]-3-(propan-2-yl)-3H-imidazo[4,5-c]pyridin-6-yl}-2-oxo-1-[(1S,3S)-3-(piperidin-1-yl)cyclobutyl]-1,2-dihydrospiro[indole-3,4′-piperidin]-1′-yl)carbonyl]piperidine-1-carbonyl}piperidin-1-yl)phenyl]-1,3-diazinane-2,4-dione] |

| SMILES | DC50 | Dmax |
| --- | --- | --- |
| CC(C(=O)N1CCN(C(=O)C2CCN(c3cc(C4CCC(=O)NC4=O)ccn3)CC2)CC1)N1CCC2(CC1)C(=O)N([C@H]1C[C@@H](N3CCCCC3)C1)c1cc(-c3cc4ncn(C(C)C)c4c(NC4CC4)n3)ccc12 (stereo partly drawn) [Example 173, 3-(2-{4-[4-(2-{6-[4-(cyclopropylamino)-3-(propan-2-yl)-3H-imidazo[4,5-c]pyridin-6-yl]-2-oxo-1-[(1S,3S)-3-(piperidin-1-yl)cyclobutyl]-1,2-dihydrospiro[indole-3,4′-piperidin]-1′-yl}propanoyl)piperazine-1-carbonyl]piperidin-1-yl}pyridin-4-yl)piperidine-2,6-dione] | 0.1 to 0.5 µM | 70 to 85% |
